Data from patent US5519138A, “Phenylalkyl derivatives, with pharmaceutical activity” (Dr. Karl Thomae GmbH, priority 1991, dated 1996).

What follows are molecules tested against T1, Angiotensin II-receptor (Rattus norvegicus, UniProt P25095) (assay: Angiotensin II-receptor bonding). Conditions: not given.
T1 construct: The tissue (rats lung) is homogenised in Tris-buffer; from tissue; host or cells: rat lung homogenate (washed 20,000x g pellet)
T1 sequence (P25095 1-359): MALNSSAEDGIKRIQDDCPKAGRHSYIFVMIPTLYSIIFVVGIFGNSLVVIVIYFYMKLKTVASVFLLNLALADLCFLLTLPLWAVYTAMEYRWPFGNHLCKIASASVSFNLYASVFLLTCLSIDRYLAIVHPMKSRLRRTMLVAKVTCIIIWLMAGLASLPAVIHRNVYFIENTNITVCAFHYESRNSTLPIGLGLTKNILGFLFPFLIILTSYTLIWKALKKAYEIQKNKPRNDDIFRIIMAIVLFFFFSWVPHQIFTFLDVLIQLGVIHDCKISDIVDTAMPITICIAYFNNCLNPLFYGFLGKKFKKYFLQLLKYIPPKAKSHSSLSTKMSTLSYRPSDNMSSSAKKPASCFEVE
Assay type: binding
Method: Description of method: Angiotensin II-receptor bonding
The tissue (rats lung) is homogenised in Tris-buffer (50 mMol Tris, 150 mMol NaCl, 5 mMol EDTA, pH 7.40) and centrifuged twice for 20 minutes at 20,000x g. The finished pellets are resuspended in incubating buffer (50 mMol Tris, 5 mMol MgCl2, 0.2% BSA, pH 7.40) 1:75, based on the moist weight of the tissue. Each 0.1 ml of homogenate is incubated for 60 minutes at 37° C. with 50 pM [^125 I]-angiotensin II (NEN, Dreieich, FRG) with increasing concentrations of the test substance in a total volume of 0.25 ml. Incubation is ended by rapid filtration through glass fibre filter mats. The filters are each washed with 4 ml of ice cold buffer (25 mMol Tris, 2.5 mMol MgCl2, 0.1% BSA, pH 7.40). The bound radioactivity is measured using a gamma-counter. The corresponding IC50 value is obtained from the dose-activity curve.
In the test described, substances A to I show the following IC50 values: […]

Which IC50 does the source give for `CCCCc1nc2ccccc2n1Cc1ccc(NC(c2ccccc2)P(=O)(O)OCC)cc1` (stereo not drawn) [Substance I, 2-n-Butyl-1-[4-[α-(O-ethyl-phosphono)benzylamino]benzyl]benzimidazole] here?
Its IC50 is 560 nM.

Same assay, conditions: rats lung homogenate; 50 pM [^125 I]-angiotensin II; 60 minutes at 37° C.; pH 7.40; read-out: IC50

`CCCc1nc2c(C)cccc2n1Cc1ccc(OC(C(=O)O)c2ccccc2)cc1` (stereo not drawn) [Substance A, 2-n-Propyl-4-methyl-1-[4-[(α-carboxy)benzyloxy]benzyl]benzimidazole] was tested. Which IC50 did it give?
The IC50 was 76 nM.

With `CCCCc1nc2ccc(NC(=O)N(C)C)cc2n1Cc1ccc(OC(C(=O)O)c2ccccc2)cc1` (stereo not drawn) [Substance B, 2-n-Butyl-1-[4-[(α-carboxy)benzyloxy]benzyl]-6-dimethylaminocarbonylamino-benzimidazole] as the molecule, how does the IC50 read?
The IC50 was 8 nM.

Which IC50 does the source give for `CCCc1nc2c(C)cc(-c3nc4ccccc4n3C)cc2n1Cc1ccc(OC(C(=O)O)c2ccccc2)cc1` (stereo not drawn) [Substance C, 2-n-Propyl-6-(1-methyl-benzimidazol-2-yl)-4-methyl-1-[4-[(α-carboxy)benzyloxy]benzyl]benzimidazole] here?
The IC50 was 4 nM.

Which IC50 does the source give for `Cc1cc(OCc2ccc(OC(C(=O)O)c3ccccc3)cc2)c2ccccc2n1` (stereo not drawn) [Substance D, 2-Methyl-4-[4'-[(α-carboxy)benzyloxy]benzyloxy]quinoline] here?
The IC50 was 2000 nM.

How did the IC50 turn out when `CCCCc1nc2c(C)cccc2c(=O)n1Cc1ccc(OC(C(=O)O)c2ccccc2)cc1` (stereo not drawn) [Substance E, 2-n-Butyl-8-methyl-3-[4-[(α-carboxy)benzyloxy]benzyl]-quinazolin-4-one-semihydrate] was run?
Its IC50 is 2000 nM.

Which IC50 does the source give for `CCCc1nc2c(C)cc(-c3nc4ccccc4n3C)cc2n1Cc1ccc(OC(c2ccccc2)c2nnn[nH]2)cc1` (stereo not drawn) [Substance F, 2-n-Propyl-4-methyl-6-(1-methyl-benzimidazol-2-yl)-1-[4-[α-(1H-tetrazol-5-yl)benzyloxy]benzyl]benzimidazole] here?
The IC50 was 12 nM.

Which IC50 does the source give for `CCCCc1nc2ccc(N(C)C(=O)CC)cc2n1Cc1ccc(OC(CC(C)C)C(=O)O)cc1` (stereo not drawn) [Substance G, 2-n-Butyl-6-(N-propionyl-methylamino)-1-[4-[(1-carboxy-3-methyl)butyloxy]benzyl]benzimidazole] here?
Its IC50 is 830 nM.

With `CCCCc1nc2cc(N3CCCN(Cc4ccccc4)C3=O)c(C)nc2n1Cc1ccc(OC(c2ccccc2)c2nnn[nH]2)cc1` (stereo not drawn) [Substance H, 2-n-Butyl-5-methyl-6-(3-benzyl-3,4,5,6-tetrahydro-2(1H)-pyrimidinon-1-yl)-3-[4-[α-(1H-tetrazol-5-yl)benzyloxy]benzyl]imidazo[4,5-b]pyridine] as the molecule, how does the IC50 read?
The IC50 was 27 nM.
